In patent US20240158392A1 (Janssen Biotech, Inc., priority 2021, published 2024):

Molecular target: SIK2 (Homo sapiens, UniProt Q9H0K1)
Assay: SIK2 Enzymatic Assay High Version 2 (High ATP)
Format: biochemical
Details: not given
Procedure, shortened: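 At room temperature, enzyme (6 nM, 2× final) was preincubated with compound for 30 min, then 6 mM ATP and 400 μM HDAC5tide (both 2× final) were added for 2 h. ADP formed was measured by ADP-Glo Max (2 h reagent, 1 h detection) using luminescence.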

Sequence of SIK2 (Q9H0K1 whole entry, species assumed): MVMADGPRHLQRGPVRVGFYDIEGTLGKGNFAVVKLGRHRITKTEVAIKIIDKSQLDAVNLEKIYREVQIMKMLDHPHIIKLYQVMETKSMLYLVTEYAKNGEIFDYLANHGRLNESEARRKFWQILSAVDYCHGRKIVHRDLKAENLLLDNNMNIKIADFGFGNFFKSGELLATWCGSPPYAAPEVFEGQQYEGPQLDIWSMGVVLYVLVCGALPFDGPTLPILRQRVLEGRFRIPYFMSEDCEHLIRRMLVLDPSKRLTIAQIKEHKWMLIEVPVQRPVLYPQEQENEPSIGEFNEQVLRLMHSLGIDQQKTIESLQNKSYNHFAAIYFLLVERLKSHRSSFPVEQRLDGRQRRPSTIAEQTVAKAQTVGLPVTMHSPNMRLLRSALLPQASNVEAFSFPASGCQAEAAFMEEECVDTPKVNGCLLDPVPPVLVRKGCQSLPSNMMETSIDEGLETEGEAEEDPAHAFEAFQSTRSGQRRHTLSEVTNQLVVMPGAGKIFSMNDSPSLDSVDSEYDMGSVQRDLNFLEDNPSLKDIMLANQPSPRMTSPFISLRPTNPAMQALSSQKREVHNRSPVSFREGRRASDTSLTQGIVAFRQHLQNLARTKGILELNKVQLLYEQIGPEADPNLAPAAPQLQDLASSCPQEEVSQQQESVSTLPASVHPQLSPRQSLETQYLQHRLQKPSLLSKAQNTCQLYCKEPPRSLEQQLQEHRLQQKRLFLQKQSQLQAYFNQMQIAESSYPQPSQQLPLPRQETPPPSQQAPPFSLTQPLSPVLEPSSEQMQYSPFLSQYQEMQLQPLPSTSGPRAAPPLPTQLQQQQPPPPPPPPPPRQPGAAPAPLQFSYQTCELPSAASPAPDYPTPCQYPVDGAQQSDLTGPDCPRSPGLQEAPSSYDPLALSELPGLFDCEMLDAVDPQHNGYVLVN

Compound | IC50 [µM]
CNC(=O)c1c(OC)cc(Nc2cc3cc(-c4cc(C)ncc4OC4C[C@H]5COC[C@@H](C4)N5)ccn3n2)cc1OC (stereo partly drawn) [Example 357, 2,6-dimethoxy-N-methyl-4-[[5-[2-methyl-5-[[(1S,5R)-3-oxa-9-azabicyclo[3.3.1]nonan-7-yl]oxy]-4-pyridyl]pyrazolo[1,5-a]pyridin-2-yl]amino]benzamide] | 0.00101
Cc1cc(-c2ccn3nc(Nc4cc(C)nc(C)n4)cc3c2)c(OC[C@@H]2CN(C)C(=O)N2)cn1 [Example 365, (4S)-4-[[4-[2-[(2,6-dimethylpyrimidin-4-yl)amino]pyrazolo[1,5-a]pyridin-5-yl]-6-methyl-3-pyridyl]oxymethyl]-1-methyl-imidazolidin-2-one] | < 0.000847

Same assay, conditions: enzyme 6 nM, 6 mM ATP and 400 μM HDAC5tide (each 2× final concentration); 30 minutes pre-incubation, 2 hours; ADP-Glo Max luminescence; read-out: SIK2 high ATP IC50 (μM) (Test Example 2)

Compound | IC50 [µM]
Cc1cc(-c2ccn3nc(NC(=O)C4CC4)cc3c2)c(OCC(C)(N)C(F)(F)F)cn1 (single isomer, unassigned) [Example 160, (*S)—N-[5-[5-(2-amino-3,3,3-trifluoro-2-methyl-propoxy)-2-methyl-4-pyridyl]pyrazolo[1,5-a]pyridin-2-yl]cyclopropanecarboxamide] | 0.0444
Cc1cc(Nc2cc3cc(-c4cc(O[C@H](C)C#N)ncc4OCC(C)(C)C#N)ccn3n2)nc(C)n1 (single isomer, unassigned) [Example 680, (*R)-3-[[6-(1-cyanoethoxy)-4-[2-[(2,6-dimethylpyrimidin-4-yl)amino]pyrazolo[1,5-a]pyridin-5-yl]-3-pyridyl]oxy]-2,2-dimethyl-propanenitrile] | 0.0317
Cc1cc(-c2ccn3nc(NC(=O)C4CC4)cc3c2)c(OCC2(O)CCNC2)cn1 (single isomer, unassigned) [Example 223, (*R)—N-[5-[5-[(3-hydroxypyrrolidin-3-yl)methoxy]-2-methyl-4-pyridyl]pyrazolo[1,5-a]pyridin-2-yl]cyclopropanecarboxamide] | 0.0278
(*S)-4-[[6-(difluoromethoxy)-4-[2-[(2,6-dimethylpyrimidin-4-yl)amino]pyrazolo[1,5-a]pyridin-5-yl]-3-pyridyl]oxymethyl]-1,5,5-trimethyl-pyrrolidin-2-one [Example 734] | 0.00307
Cc1cc(-c2ccn3nc(Nc4cc(C)nc(C)n4)cc3c2)c(OCC2(O)CCC2)cn1 [Example 217, 1-[[4-[2-[(2,6-dimethylpyrimidin-4-yl)amino]pyrazolo[1,5-a]pyridin-5-yl]-6-methyl-3-pyridyl]oxymethyl]cyclobutanol] | 0.0279
Cc1cc(-c2ccn3nc(Nc4ccc5nccn5n4)cc3c2)c(OCC(C)(C)C#N)cn1 [Example 308, 3-[[4-[2-(imidazo[1,2-b]pyridazin-6-ylamino)pyrazolo[1,5-a]pyridin-5-yl]-6-methyl-3-pyridyl]oxy]-2,2-dimethyl-propanenitrile] | 0.00171
Cc1cc(-c2ccn3nc(Nc4cc(C)nc(C)n4)cc3c2)c(OCCC(C)(C)C#N)cn1 [Example 315, 4-[[4-[2-[(2,6-dimethylpyrimidin-4-yl)amino]pyrazolo[1,5-a]pyridin-5-yl]-6-methyl-3-pyridyl]oxy]-2,2-dimethyl-butanenitrile] | 0.00406
N#CCN1CC[C@@H](COc2cnc(C#N)cc2-c2ccn3nc(NC(=O)C4CC4)cc3c2)C1 [Example 563, N-[5-[2-cyano-5-[[(3R)-1-(cyanomethyl)pyrrolidin-3-yl]methoxy]-4-pyridyl]pyrazolo[1,5-a]pyridin-2-yl]cyclopropanecarboxamide] | 0.038
CCc1cc(-c2ccn3nc(Nc4cc(C)nc(C)n4)cc3c2)c(OCC(C)(C)C#N)cn1 [Example 328, 3-[[4-[2-[(2,6-dimethylpyrimidin-4-yl)amino]pyrazolo[1,5-a]pyridin-5-yl]-6-ethyl-3-pyridyl]oxy]-2,2-dimethyl-propanenitrile] | 0.0381
Cc1cc(-c2ccn3nc(NC(=O)C4CC4)cc3c2)c(O[C@H]2CC[C@@](O)(C(F)(F)F)CC2)cn1 [Example 191, N-(5-(5-(((1r,4r)-4-hydroxy-4-(trifluoromethyl)cyclohexyl)oxy)-2-methylpyridin-4-yl)pyrazolo[1,5-a]pyridin-2-yl)cyclopropanecarboxamide] | 0.00251
Cc1cc(-c2ccn3nc(Nc4cc(C)nc(C)n4)cc3c2)c(OC[C@H]2C[C@@H](C#N)C2)cn1 [Example 687, 3-[[4-[2-[(2,6-dimethylpyrimidin-4-yl)amino]pyrazolo[1,5-a]pyridin-5-yl]-6-methyl-3-pyridyl]oxymethyl]cyclobutanecarbonitrile] | 0.0759
Cc1cc(-c2ccn3nc(Nc4cc(C(=O)NC5CC5)cc(C)n4)cc3c2)c(OCC(C)(C)O)cn1 [Example 636, N-cyclopropyl-2-[[5-[5-(2-hydroxy-2-methyl-propoxy)-2-methyl-4-pyridyl]pyrazolo[1,5-a]pyridin-2-yl]amino]-6-methyl-pyridine-4-carboxamide] | 0.0135
CNc1nc(C)cc(Nc2cc3cc(-c4cc(C)ncc4OCC(C)(C)C#N)ccn3n2)n1 [Example 309, 2,2-dimethyl-3-[[6-methyl-4-[2-[[6-methyl-2-(methylamino)pyrimidin-4-yl]amino]pyrazolo[1,5-a]pyridin-5-yl]-3-pyridyl]oxy]propanenitrile] | < 0.000847
Cc1cc(-c2ccn3nc(Nc4cccnc4)cc3c2)c(OC[C@@H]2CNCCO2)cn1 [Example 131, 5-[2-methyl-5-[[(2S)-morpholin-2-yl]methoxy]-4-pyridyl]-N-(3-pyridyl)pyrazolo[1,5-a]pyridin-2-amine] | 0.0524
Cc1cc(-c2ccn3nc(Nc4cc(C)nc(C)n4)cc3c2)c(OCC2(C(N)=O)CC2)cn1 [Example 313, 1-[[4-[2-[(2,6-dimethylpyrimidin-4-yl)amino]pyrazolo[1,5-a]pyridin-5-yl]-6-methyl-3-pyridyl]oxymethyl]cyclopropanecarboxamide] | 0.0138

Now from value to compound:

IC50 [µM] | Compound
0.00126 | Cc1cc(-c2ccn3nc(Nc4cc(C)c(=O)n(C)n4)cc3c2)c(O[C@H]2CC[C@H](O)CC2)cn1 [Example 226, 6-((5-(5-(((1r,4r)-4-hydroxycyclohexyl)oxy)-2-methylpyridin-4-yl)pyrazolo[1,5-a]pyridin-2-yl)amino)-2,4-dimethylpyridazin-3(2H)-one]
0.0347 | Cc1cc(Nc2cc3cc(-c4cc(O[C@@H](C)C#N)ncc4OCC(C)(C)C#N)ccn3n2)nc(C)n1 (single isomer, unassigned) [Example 681, (*S)-3-[[6-(1-cyanoethoxy)-4-[2-[(2,6-dimethylpyrimidin-4-yl)amino]pyrazolo[1,5-a]pyridin-5-yl]-3-pyridyl]oxy]-2,2-dimethyl-propanenitrile]
0.00555 | CO[C@H]1CNC[C@@H]1COc1cnc(C)cc1-c1ccn2nc(NC(=O)C3CC3)cc2c1 (relative stereo) [Example 458, Trans-*R, *R—N-[5-[5-[(4-methoxypyrrolidin-3-yl)methoxy]-2-methyl-4-pyridyl]pyrazolo[1,5-a]pyridin-2-yl]cyclopropanecarboxamide]
0.0366 | CNC(=O)c1c(OC)cc(Nc2cc3cc(-c4cc(C)ncc4O[C@H]4CC[C@H](O)CC4)ccn3n2)cc1OC [Example 331, 4-[[5-[5-(4-hydroxycyclohexoxy)-2-methyl-4-pyridyl]pyrazolo[1,5-a]pyridin-2-yl]amino]-2,6-dimethoxy-N-methyl-benzamide]
0.0766 | Cc1cc(Nc2cc3cc(-c4cc(OCC(F)F)ncc4OCC(C)(C)C#N)ccn3n2)nn(C)c1=O [Example 693, 3-[[6-(2,2-difluoroethoxy)-4-[2-[(1,5-dimethyl-6-oxo-pyridazin-3-yl)amino]pyrazolo[1,5-a]pyridin-5-yl]-3-pyridyl]oxy]-2,2-dimethyl-propanenitrile]
0.0206 | CC(C)(C#N)COc1cnc(OC(F)F)cc1-c1ccn2nc(Nc3cc(N)cnn3)cc2c1 [Example 704, 3-[[4-[2-[(5-aminopyridazin-3-yl)amino]pyrazolo[1,5-a]pyridin-5-yl]-6-(difluoromethoxy)-3-pyridyl]oxy]-2,2-dimethyl-propanenitrile]
0.0188 | Cc1cc(-c2ccn3nc(Nc4cc(C)c(=O)n(CCOC(F)F)n4)cc3c2)c(OCC(C)(C)O)cn1 [Example 284, 2-[2-(difluoromethoxy)ethyl]-6-[[5-[5-(2-hydroxy-2-methyl-propoxy)-2-methyl-4-pyridyl]pyrazolo[1,5-a]pyridin-2-yl]amino]-4-methyl-pyridazin-3-one]
< 0.000847 | CCn1nc(Nc2cc3cc(-c4cc(C)ncc4OC[C@H]4OCC[C@@H]4O)ccn3n2)cc(C)c1=O [Example 293, 2-ethyl-6-[[5-[5-[[(2R,3S)-3-hydroxytetrahydrofuran-2-yl]methoxy]-2-methyl-4-pyridyl]pyrazolo[1,5-a]pyridin-2-yl]amino]-4-methyl-pyridazin-3-one]
0.0182 | CC(C)(C#N)COc1cnc(OC(F)F)cc1-c1ccn2nc(Nc3cc4c(cn3)CCNC4)cc2c1 [Example 718, 3-[[6-(difluoromethoxy)-4-[2-(5,6,7,8-tetrahydro-2,6-naphthyridin-3-ylamino)pyrazolo[1,5-a]pyridin-5-yl]-3-pyridyl]oxy]-2,2-dimethyl-propanenitrile]
0.00138 | COc1cc(Nc2cc3cc(-c4cc(C)ncc4OCC(C)(C)C#N)ccn3n2)cc(OC)c1C(=O)NC1CC1 [Example 268, 4-[[5-[5-(2-cyano-2-methyl-propoxy)-2-methyl-4-pyridyl]pyrazolo[1,5-a]pyridin-2-yl]amino]-N-cyclopropyl-2,6-dimethoxy-benzamide]
0.0666 | Cc1cc(-c2ccn3nc(Nc4cc(C)nc(C)n4)cc3c2)c(OC2CC(NS(C)(=O)=O)C2)cn1 (centres unmarked) [Example 579, N-[3-[[4-[2-[(2,6-dimethylpyrimidin-4-yl)amino]pyrazolo[1,5-a]pyridin-5-yl]-6-methyl-3-pyridyl]oxy]cyclobutyl]methanesulfonamide]
0.00568 | Cc1ccc(Nc2cc3cc(-c4cc(C)ncc4OC[C@@H]4CNCCO4)ccn3n2)nc1 [Example 425, 5-[2-methyl-5-[[(2S)-morpholin-2-yl]methoxy]-4-pyridyl]-N-(5-methyl-2-pyridyl)pyrazolo[1,5-a]pyridin-2-amine]
